From the supplement of paper PMC7017272
± gives the standard deviation of the averaged measurements.

Experiments:
Conditions in all cases: treatment time: 3 days
[1] = system: UT-SCC-24A; experiment: drug sensitivity score (DSS); higher = more sensitive
Experimental: (§1)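 HNSCC cell lines (500 cells/well, 384-well) were cultured on plastic, on top of (2D) or embedded (3D) in Matrigel or human leiomyoma matrix Myogel (500 ug/mL; Myogel 3D mixed with rat collagen I). Cells were treated for 3 days with 5 ten-fold concentrations of each drug, and viability was read by CellTiter-Glo. Suffixes _1/_2/_3 on drug names are replicates.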

[2] = system: UT-SCC-106A; experiment: maximal % inhibition of viability relative to DMSO; higher = stronger effect
How it was run: (§2)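 Viability was read with CellTiter-Glo 2.0 luminescence and scaled against vehicle (0.1% DMSO) and cell-killing control wells. The assay used HPV-negative HNSCC cell lines at 500 cells/well in 384-well plates, grown on plastic, on Matrigel or Myogel coatings (500 µg/mL), or embedded in Matrigel or Myogel plus rat collagen I, and treated for 3 days at five 10-fold concentrations. IC50, maximal inhibition and drug sensitivity score were derived from percent-inhibition dose–response curves fitted in the FIMM pipeline.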

[3] = system: UT-SCC-44; experiment: as above
How it was run: as §2

[4] = system: UT-SCC-73; experiment: as above
How it was run: as §2

[5] = system: UT-SCC-24A; experiment: maximal % inhibition of viability relative to DMSO; higher = stronger effect
Experimental: as §1, with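 “CellTiter-Glo. Viability was normalised to DMSO (0% inhibition) and 100 uM benzethonium chloride (100% inhibition) controls and fitted with the FIMM DSRT pipeline to give IC50 (nM), maximal % inhibition and the drug sensitivity score (DSS).” for “CellTiter-Glo.”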

[6] = system: UT-SCC-106A; experiment: drug sensitivity score (DSS); higher = more sensitive; extreme values may be limits of the assay
How it was run: as §2

[7] = system: UT-SCC-14; experiment: as above
How it was run: as §2

[8] = system: UT-SCC-24B; experiment: as above
How it was run: as §2

[9] = system: UT-SCC-28; experiment: as above
How it was run: as §2

[10] = system: UT-SCC-40; experiment: as above
How it was run: as §2

[11] = system: UT-SCC-42A; experiment: as above
How it was run: as §2

[12] = system: UT-SCC-42B; experiment: as above
How it was run: as §2

[13] = system: UT-SCC-44; experiment: as above
How it was run: as §2

[14] = system: UT-SCC-73; experiment: as above
How it was run: as §2

[15] = system: UT-SCC-81; experiment: as above
How it was run: as §2

[16] = system: UT-SCC-8; experiment: as above
How it was run: as §2

[17] = culture condition: embedded in Matrigel
[18] = culture condition: embedded in Myogel + collagen I
[19] = culture condition: on top of Matrigel
[20] = culture condition: on top of Myogel
[21] = culture condition: plastic 2D (no matrix)

Cn1cnc2c(F)c(Nc3ccc(Br)cc3Cl)c(C(=O)NOCCO)cc21 [Selumetinib]
drug sensitivity score [1, 17]: 20.7 ± 4.2 DSS | drug sensitivity score [1, 18]: 16.4 ± 1.8 DSS | drug sensitivity score [1, 19]: 19.4 ± 3.9 DSS | drug sensitivity score [1, 20]: 8.63 ± 1.6 DSS | drug sensitivity score [1, 21]: 17.9 ± 3.7 DSS | maximal % inhibition of viability [2, 17]: 53.2 ± 6.3% | maximal % inhibition of viability [2, 18]: 18.7 ± 4.1% | maximal % inhibition of viability [2, 19]: 58.9 ± 5.3% | maximal % inhibition of viability [2, 20]: 15.5 ± 4.6% | maximal % inhibition of viability [2, 21]: 58.1 ± 4.1% | maximal % inhibition of viability [3, 17]: 66.5 ± 25% | maximal % inhibition of viability [3, 18]: 42.2 ± 0.7% | maximal % inhibition of viability [3, 19]: 51.6 ± 3.1% | maximal % inhibition of viability [3, 20]: 41.2 ± 5.3% | maximal % inhibition of viability [3, 21]: 39.8 ± 1.5% | maximal % inhibition of viability [4, 17]: 81.9 ± 1.5% | maximal % inhibition of viability [4, 18]: 54.4 ± 8.1% | maximal % inhibition of viability [4, 19]: 80 ± 1.5% | maximal % inhibition of viability [4, 20]: 65.4 ± 1.1% | maximal % inhibition of viability [4, 21]: 75.3 ± 1.2% | maximal % inhibition of viability [5, 17]: 81.7 ± 2.1% | maximal % inhibition of viability [5, 18]: 59.2 ± 2.4% | maximal % inhibition of viability [5, 19]: 76.7 ± 1.4% | maximal % inhibition of viability [5, 20]: 38.4 ± 3% | maximal % inhibition of viability [5, 21]: 70.2 ± 7.2% | drug sensitivity score [6, 17]: 14.6 ± 2 DSS | drug sensitivity score [6, 18]: 0.867 ± 1.5 DSS | drug sensitivity score [6, 19]: 16.1 ± 0.75 DSS | drug sensitivity score [6, 20]: 1.03 ± 1.7 DSS | drug sensitivity score [6, 21]: 15.7 ± 2.3 DSS | drug sensitivity score [7, 17]: 7.13 ± 6.1 DSS | drug sensitivity score [7, 18]: 5.17 ± 3.2 DSS | drug sensitivity score [7, 19]: 7.17 ± 3 DSS | drug sensitivity score [7, 20]: 3.5 ± 3.6 DSS | drug sensitivity score [7, 21]: 0.833 ± 1.4 DSS | drug sensitivity score [8, 17]: 18.9 ± 1.8 DSS | drug sensitivity score [8, 18]: 18.2 ± 1.7 DSS | drug sensitivity score [8, 19]: 18.6 ± 0.25 DSS | drug sensitivity score [8, 20]: 17.6 ± 0.75 DSS | drug sensitivity score [8, 21]: 21 ± 0.4 DSS | drug sensitivity score [9, 17]: 8.07 ± 4.3 DSS | drug sensitivity score [9, 18]: 4.4 ± 3.9 DSS | drug sensitivity score [9, 19]: 6.2 ± 5.5 DSS | drug sensitivity score [9, 21]: 3.8 ± 3.9 DSS | drug sensitivity score [10, 17]: 22.6 ± 0.71 DSS | drug sensitivity score [10, 18]: 17.6 ± 0.8 DSS | drug sensitivity score [10, 19]: 20.7 ± 0.92 DSS | drug sensitivity score [10, 20]: 11.2 ± 2.4 DSS | drug sensitivity score [10, 21]: 12.6 ± 2.5 DSS | drug sensitivity score [11, 17]: 10.9 ± 4.8 DSS | drug sensitivity score [11, 18]: 4.23 ± 4.5 DSS | drug sensitivity score [11, 19]: 14.4 ± 5 DSS | drug sensitivity score [11, 20]: 9.23 ± 2 DSS | drug sensitivity score [11, 21]: 10.8 ± 3 DSS | drug sensitivity score [12, 17]: 16.5 ± 4.6 DSS | drug sensitivity score [12, 19]: 8.67 ± 2.3 DSS | drug sensitivity score [12, 20]: 2.13 ± 0.76 DSS | drug sensitivity score [12, 21]: 2.33 ± 2 DSS | drug sensitivity score [13, 17]: 15.8 ± 5.2 DSS | drug sensitivity score [13, 18]: 4.83 ± 4.2 DSS | drug sensitivity score [13, 19]: 12.3 ± 0.94 DSS | drug sensitivity score [13, 20]: 8.17 ± 1.2 DSS | drug sensitivity score [13, 21]: 7.8 ± 3.5 DSS | drug sensitivity score [14, 17]: 21 ± 2.8 DSS | drug sensitivity score [14, 18]: 13.5 ± 3.5 DSS | drug sensitivity score [14, 19]: 20.2 ± 2.6 DSS | drug sensitivity score [14, 20]: 15.2 ± 1.1 DSS | drug sensitivity score [14, 21]: 17.9 ± 1.4 DSS | drug sensitivity score [15, 17]: 24.4 ± 0.94 DSS | drug sensitivity score [15, 18]: 7.33 ± 6.3 DSS | drug sensitivity score [15, 19]: 19.9 ± 0.72 DSS | drug sensitivity score [15, 20]: 9.93 ± 3.6 DSS | drug sensitivity score [15, 21]: 7.87 ± 8 DSS | drug sensitivity score [16, 17]: 10.1 ± 1.3 DSS | drug sensitivity score [16, 18]: 1.37 ± 2.4 DSS | drug sensitivity score [16, 19]: 9.63 ± 0.58 DSS | drug sensitivity score [16, 20]: 10.3 ± 1.5 DSS | drug sensitivity score [16, 21]: 5.63 ± 2.3 DSS

CO[C@H]1C[C@@H]2CC[C@@H](C)[C@@](O)(O2)C(=O)C(=O)N2CCCC[C@H]2C(=O)O[C@H]([C@H](C)C[C@@H]2CC[C@@H](O)[C@H](OC)C2)CC(=O)[C@H](C)/C=C(\C)[C@@H](O)[C@@H](OC)C(=O)[C@H](C)C[C@H](C)/C=C/C=C/C=C/1C [Sirolimus]
drug sensitivity score [1, 17]: 9 ± 4.9 DSS | drug sensitivity score [1, 18]: 16.4 ± 1.2 DSS | drug sensitivity score [1, 19]: 12.7 ± 3.7 DSS | drug sensitivity score [1, 20]: 13.7 ± 1.2 DSS | drug sensitivity score [1, 21]: 12.9 ± 2.5 DSS | maximal % inhibition of viability [2, 17]: 53.1 ± 13% | maximal % inhibition of viability [2, 18]: 35.2 ± 3% | maximal % inhibition of viability [2, 19]: 52.9 ± 3.1% | maximal % inhibition of viability [2, 20]: 41.1 ± 1.3% | maximal % inhibition of viability [2, 21]: 57.3 ± 2.8% | maximal % inhibition of viability [3, 17]: 48.7 ± 9.5% | maximal % inhibition of viability [3, 18]: 72.6 ± 1.9% | maximal % inhibition of viability [3, 19]: 61 ± 2.4% | maximal % inhibition of viability [3, 20]: 72.5 ± 1.7% | maximal % inhibition of viability [3, 21]: 72.3 ± 3.1% | maximal % inhibition of viability [4, 17]: 84.6 ± 1.5% | maximal % inhibition of viability [4, 18]: 78.8 ± 4.7% | maximal % inhibition of viability [4, 19]: 83.3 ± 2.9% | maximal % inhibition of viability [4, 20]: 80.27 ± 0.76% | maximal % inhibition of viability [4, 21]: 79.8 ± 1.5% | maximal % inhibition of viability [5, 17]: 69 ± 4.9% | maximal % inhibition of viability [5, 18]: 77.4 ± 8.1% | maximal % inhibition of viability [5, 19]: 71.57 ± 0.55% | maximal % inhibition of viability [5, 20]: 65.5 ± 2.4% | maximal % inhibition of viability [5, 21]: 67.9 ± 2.4% | drug sensitivity score [6, 17]: 4.7 ± 4.3 DSS | drug sensitivity score [6, 18]: 3.73 ± 3.3 DSS | drug sensitivity score [6, 19]: 8.67 ± 3.8 DSS | drug sensitivity score [6, 20]: 7.03 ± 3.8 DSS | drug sensitivity score [6, 21]: 10 ± 3.3 DSS | drug sensitivity score [7, 17]: 19.3 ± 2.1 DSS | drug sensitivity score [7, 18]: 15.4 ± 2.7 DSS | drug sensitivity score [7, 19]: 15.6 ± 3.3 DSS | drug sensitivity score [7, 20]: 15.4 ± 3.1 DSS | drug sensitivity score [7, 21]: 15.1 ± 3.8 DSS | drug sensitivity score [8, 17]: 22.9 ± 0.36 DSS | drug sensitivity score [8, 18]: 19.5 ± 4 DSS | drug sensitivity score [8, 19]: 18.9 ± 4.8 DSS | drug sensitivity score [8, 20]: 17.2 ± 3.4 DSS | drug sensitivity score [8, 21]: 16.8 ± 4.1 DSS | drug sensitivity score [9, 17]: 7.27 ± 5.1 DSS | drug sensitivity score [9, 18]: 7.53 ± 7 DSS | drug sensitivity score [9, 19]: 9.87 ± 0.93 DSS | drug sensitivity score [9, 21]: 6.97 ± 1.6 DSS | drug sensitivity score [10, 17]: 5.4 ± 4.9 DSS | drug sensitivity score [10, 18]: 4.83 ± 4.2 DSS | drug sensitivity score [10, 19]: 3.2 ± 5.5 DSS | drug sensitivity score [10, 20]: 4.67 ± 4.1 DSS | drug sensitivity score [10, 21]: 0 DSS | drug sensitivity score [11, 17]: 10.6 ± 4.6 DSS | drug sensitivity score [11, 18]: 9.5 ± 0.92 DSS | drug sensitivity score [11, 19]: 12.9 ± 1.6 DSS | drug sensitivity score [11, 20]: 12.3 ± 1.6 DSS | drug sensitivity score [11, 21]: 11.2 ± 0.82 DSS | drug sensitivity score [12, 17]: 3.47 ± 6 DSS | drug sensitivity score [12, 19]: 3.07 ± 5.3 DSS | drug sensitivity score [12, 20]: 0 DSS | drug sensitivity score [12, 21]: 3.8 ± 3.4 DSS | drug sensitivity score [13, 17]: 6.6 ± 5.8 DSS | drug sensitivity score [13, 18]: 13.9 ± 2.7 DSS | drug sensitivity score [13, 19]: 13.1 ± 0.99 DSS | drug sensitivity score [13, 20]: 14.2 ± 3.2 DSS | drug sensitivity score [13, 21]: 15 ± 1.4 DSS | drug sensitivity score [14, 17]: 12.4 ± 4.3 DSS | drug sensitivity score [14, 18]: 8.07 ± 1.6 DSS | drug sensitivity score [14, 19]: 11.9 ± 5.2 DSS | drug sensitivity score [14, 20]: 10.1 ± 0.81 DSS | drug sensitivity score [14, 21]: 7.43 ± 0.31 DSS | drug sensitivity score [15, 17]: 14.2 ± 4.6 DSS | drug sensitivity score [15, 18]: 14.9 ± 2.7 DSS | drug sensitivity score [15, 19]: 17.1 ± 1.8 DSS | drug sensitivity score [15, 20]: 16.6 ± 2.1 DSS | drug sensitivity score [15, 21]: 17.8 ± 1.2 DSS | drug sensitivity score [16, 17]: 12.2 ± 11 DSS | drug sensitivity score [16, 18]: 3.87 ± 6.7 DSS | drug sensitivity score [16, 19]: 11.5 ± 10 DSS | drug sensitivity score [16, 20]: 11.3 ± 9.8 DSS | drug sensitivity score [16, 21]: 12.4 ± 11 DSS
